Experimental data taken from the NIST ThermoML archive (doi:10.1021/acs.jced.6b00471).
± gives the expanded uncertainty stated by the source.

Experiments:
[1] = Liquid; for mass density: 298.15 K, 101.33 kPa, Pycnometric method; for Normal boiling temperature: Ebulliometric method (Recirculating still)
[2] = refractive index (Na D-line) (dimensionless); conditions: 298.15 K; 101.33 kPa; Liquid; Standard Abbe refractometry

CCC(C)OC(C)=O (stereo not given) [1-methylpropyl ethanoate]
mass density [1]: 863.8 ± 0.8 kg/m3 | Normal boiling temperature [1]: 111.97 ± 0.2 °C | refractive index [2]: 1.3872 ± 0.0007

CC(C)CO [2-methyl-1-propanol]
mass density [1]: 797.4 ± 0.7 kg/m3 | Normal boiling temperature [1]: 107.68 ± 0.2 °C | refractive index [2]: 1.3931 ± 0.0007

CC(C)(C)O [2-methylpropan-2-ol]
Normal boiling temperature [1]: 82.36 ± 0.2 °C | refractive index [2]: 1.3857 ± 0.0007

CCCCO [butan-1-ol]
mass density [1]: 805.8 ± 0.7 kg/m3 | refractive index [2]: 1.397 ± 0.0007
